Experimental data taken from publication PMC3602417 (MedChemComm, 2013).
Like-named read-outs stand apart in the source and are kept apart here.

What was measured:
rats [1] = conditions: cited from earlier work
nAChRs = conditions: cited from earlier work
METH-evoked DA release = conditions: cited from earlier work
VMAT2 [2] = biological target: T1, VMAT2 (Rattus norvegicus, UniProt Q01827); conditions: read-out: [3H]DTBZ Ki ± SEM; Table 1; rat synaptic vesicle membranes; ref 12b; cited from earlier work
T1 sequence (Q01827 whole entry): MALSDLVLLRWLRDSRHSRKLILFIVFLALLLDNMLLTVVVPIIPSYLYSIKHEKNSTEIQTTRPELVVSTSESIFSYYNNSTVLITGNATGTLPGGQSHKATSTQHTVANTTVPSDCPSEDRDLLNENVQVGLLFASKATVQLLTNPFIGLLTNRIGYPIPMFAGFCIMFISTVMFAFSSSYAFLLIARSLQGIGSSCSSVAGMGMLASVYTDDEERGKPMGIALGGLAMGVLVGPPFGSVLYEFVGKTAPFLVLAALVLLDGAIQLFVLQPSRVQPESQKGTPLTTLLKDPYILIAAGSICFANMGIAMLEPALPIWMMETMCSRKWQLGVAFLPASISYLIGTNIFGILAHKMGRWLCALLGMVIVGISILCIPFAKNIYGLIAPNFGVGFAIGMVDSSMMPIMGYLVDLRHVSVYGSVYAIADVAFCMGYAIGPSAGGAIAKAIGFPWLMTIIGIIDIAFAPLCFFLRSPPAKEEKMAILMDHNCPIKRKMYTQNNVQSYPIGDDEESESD

rats [3] = assay: METH self-administration; format: in vivo, rat; conditions: preliminary data
rats [4] = conditions: cited from earlier work; remark: listed apart in the source
water solubility = format: physicochemical
rats [5] = conditions: cited from earlier work; remark: listed apart in the source
VMAT2 [6] = biological target: T1, VMAT2; assay: inhibition of [3H]DA uptake into rat striatal synaptic vesicles; format: biochemical
[7] = cited from earlier work
rats [8] = conditions: cited from earlier work; remark: listed apart in the source
VMAT2 [9] = biological target: T1, VMAT2; assay: [3H]DTBZ binding to rat synaptic vesicle membranes
VMAT2 [10] = biological target: T1, VMAT2; conditions: cited from earlier work

For `CN1[C@@H](CC(=O)c2ccccc2)CCC[C@H]1C[C@H](O)c1ccccc1` [Compound 1, (−)-lobeline], the “effect on METH-induced behavioral effects” value (rats [1]) is given as “attenuates METH-induced behavioral effects”, the “affinity at nAChR α4β2* subtype” value (nAChRs; α4β2* subtype) is given as “high affinity” and the “effect on METH-evoked DA release” value (METH-evoked DA release; rat striatal slices) is given as “inhibits METH-evoked DA release from rat striatal slices”.

In the case of `CCN1[C@@H](CCc2ccccc2)CCC[C@H]1CCc1ccccc1` [Compound 4], the Ki (VMAT2 [2]) is listed as 3410 ± 670 nM.

With `OC[C@H](O)CN1[C@@H](CCc2ccccc2)CCC[C@H]1CCc1ccccc1` [Compound 14a] the “effect on METH SA, preliminary in vivo screens” value (rats [3]) was “decrease in METH SA in rats”.

In the case of `CCCN1[C@@H](CCc2ccccc2)CCC[C@H]1CCc1ccccc1` [Compound 5], the Ki (VMAT2 [2]) is listed as 1870 ± 250 nM.

In the case of `CN1[C@@H](CCc2ccccc2)CCC[C@H]1CCc1ccccc1` [Compound 2, lobelane, reference compound], the “effect on METH self-administration (SA)” value (rats [4]; rats) is given as “dose-dependently decreases METH self-administration”, the “water solubility” value (water solubility) is given as “low water solubility” and the “effect on food-maintained responding” value (rats [5]) is given as “without altering food-maintained responding”. The “activity at nAChRs” value (nAChRs; compared to lobeline) was “negligible activity”.

In the case of `N#CCN1[C@@H](CCc2ccccc2)CCC[C@H]1CCc1ccccc1` [Compound 8], the “fold lower potency in inhibiting [3H]DA uptake at VMAT2 compared to lobelane” value (VMAT2 [6]; relative to lobelane) is reported as 100 fold.

In the case of `COc1ccc(CC[C@H]2CCC[C@@H](CCc3ccc(OC)cc3)N2C[C@@H](O)CO)cc1` [Compound 19a], the “duration of action to inhibit METH SA within a behavioral session” value (rats [4]; compared to lobeline and lobelane) is given as “significantly increased duration of action”, the “effect on METH SA” value (rats [4]; rats) is given as “effectively decreases” and the “tolerance to decrease of METH SA and CPP after repeated dosing” value (rats [4]; repeated dosing) is given as “not observed”. For the same compound, the “CPP produced by the compound (abuse liability)” value [7] was “does not produce CPP”, the “self-administration of the compound (abuse liability)” value [7] was “not self-administered” and the “effect on food-maintained responding” value (rats [5]) was “without altering food-maintained responding”. The “effect on METH CPP” value (rats [8]) was “effectively decreases” and the “effect on METH-evoked DA release” value (METH-evoked DA release; vesicles and striatal slices) was “decreasing METH-evoked DA release from vesicles and striatal slices without intrinsic activity”.

For `CN(C)N1[C@@H](CCc2ccccc2)CCC[C@H]1CCc1ccccc1` [Compound 13], the “affinity at the [3H]DTBZ binding site” value (VMAT2 [9]) was “no affinity” and the “potency inhibiting [3H]DA uptake at VMAT2 relative to lobelane” value (VMAT2 [6]) was “equipotent to lobelane”.

For `c1ccc(CC[C@H]2CCC[C@@H](CCc3ccccc3)N2)cc1` [Compound 3, nor-lobelane], the “potency for VMAT2 binding and inhibition relative to lobelane” value (VMAT2 [10]) is listed as “equal potency to lobelane”.
